Assay results reported in patent US9872919B2, “Prodrugs for selective anticancer therapy” (THE RESEARCH FOUNDATION FOR THE STATE UNIVERSITY OF NEW YORK, priority 2012, dated 2018).
Where a SMILES comes first, the peptide text is derived from it. The star is where a group is joined. Cbz = O=C(OCc1ccccc1)*

What was measured:
[1] = test system: BxPC3 shGFP control cells; test: MTT cell viability assay, BxPC3 shGFP; assay type: cell-based; details: Homo sapiens, BXPC-3, 72 hr
Experimental: (§1) FIG. 24. Effect of the prodrug on cell viability of BxPC3 cells (shGFP and shSki). Cells were treated with the indicated dose of drugs (BKAc-5FCR or 5FCR) for 72 hr followed by MTT assay. Data represent mean values of triplicate measurements±standard deviation. IC50 values were derived from nonlinear curve fit of the dose response data using an outlier's exclusion, variable slope model (GraphPad Prism software). All values are means of at least two independent experiments.
(§2) The in vitro efficacy of the compounds in a series of BxPC3 and CFPac-1 derivatives with reduced Class I HDAC activity following Ski knockdown (shSki), HDAC3 knockdown and control (shGFP) was assessed. The growth inhibitory/viability effects of the compounds (IC50 value, the concentration resulting in 50% growth inhibition) on the various cell lines were determined by dose response curve analysis (GraphPad Prism software) of MTT [3-(4,5dimethylthiazol-2-yl)-2,5-diphenyl-tetrazolium bromide] cell viability assay. If the prodrugs are activated in an HDAC-dependent manner, the cells with reduced HDAC activity would be predicted to be more resistant to the prodrug treatment than control cells, while the effect of free parental drugs on both cells would be expected to be similar.

BxPC3 shSki cells = test: MTT cell viability assay, BxPC3 shSki; assay type: cell-based, human; details: for difference in IC50 values shSki versus shGFP: BxPC3 shSki over shGFP; for IC50: Homo sapiens, BXPC-3, MTT, 72 hr, Ski knockdown
Experimental: as §1, §2

[2] = test system: HDAC and cathepsin L in BxPC3 and CFPac-1 cells; test: Live cell enzymatic assay with Boc-Lys(Ac)-AMC in pancreatic cancer cells; assay type: cell-based, human; details: for activation of substrate Boc-Lys(Ac)-AMC (AMC release): 6 hr, Z-FY-CHO 10 μM
Experimental: FIG. 5. A. HDAC assay using different substrates in BxPC3 cells (shGFP and shSki). Cells were incubated with Boc-Lys(Ac)-AMC or Ac-Arg-Gly-Lys(Ac)-AMC (25 μM) for 1 hr with DMSO (vehicle) or TSA (1 μM) as indicated, followed by cell lysis and trypsin treatment, and fluorescence measurements. Data represent mean values of triplicate measurements±standard deviation. RFU, relative fluorescent units. B. Similar experiment was done as in A but without cell lysis and trypsin treatment. Cells were incubated with the substrates for 2.5 hr.
FIG. 6. A. Release of AMC by combined HDAC and endogenous protease-dependent enzymatic reaction in BxPC3 and CFPac-1 cells (shGFP and shSki). Cells were incubated with substrate Boc-Lys(Ac)-AMC (25 μM) for 6 hr with DMSO (vehicle), TSA (1 μM), or Z-FY-CHO (10 μM) as indicated, followed by fluorescence measurements. Data represent mean values of triplicate measurements±standard deviation. RFU, relative fluorescent units. B. Time course of AMC release in BxPC3 cells (shGFP and shSki). Each cells were incubated with Boc-Lys(Ac)-AMC (25 μM) for 2.5, 6.0, and 23 hr with DMSO (vehicle) or TSA (1 μM) as indicated.
(§3) Tissue culture based standard HDAC assays were performed by commercially available fluorimetric HDAC assay kit (SensoLyte, AnaSpec) according to the manufacturer's instruction with modification of using 25 μM Boc-Lys(Ac)-AMC (Bachem) as substrate and measuring parameter (Ex/Em=355 nm/460 nm) for AMC. Basically, HDAC substrate 25 μM Boc-Lys(Ac)-AMC [either with DMSO or 1 μM TSA (Sigma)] was applied to the overnight culture seeded from 6×10^4 cells in 100 μl medium in 96-well tissue culture plates, followed by 2 to 3 h incubation at 37° C. with 5% CO2 atmosphere. Then the deacetylation reaction was terminated by addition of HDAC developer solution containing cell lysis buffer and trypsin reagents. After 15 m incubation at room temperature, the fluorescent signal of AMC was measured by SpectraMax M5 microplate reader (Molecular Devices) at Ex/Em=355 nm/460 nm. Live cell lysyl endopeptidase assay was performed by applying the substrate 25 μM Boc-Lys-AMC (Bachem) [either with DMSO or 100 μM Z-FY-CHO (EMD)] to the overnight culture seeded from 6×10^4 cells in 100 μl medium in 96-well tissue culture plates, followed by 20 h incubation at 37° C. with 5% CO2 atmosphere, then the fluorescent signal of AMC was measured. Live cell enzymatic assay using Boc-Lys(Ac)-AMC was performed by applying the substrate 25 μM Boc-Lys(Ac)-AMC (either with DMSO, 1 μM TSA or 100 μM Z-FY-CHO) to the overnight culture seeded from 6×10^4 cells in 100 μl medium in 96-well tissue culture plates, followed by 20 h incubation at 37° C. with 5% CO2 atmosphere, then the fluorescent signal of AMC was measured. Experiments were repeated at least three times.

[3] = test system: HCT116, HT29, CCD841-CoN and Caco-2 cells; test: Cell killing by parental Puro (MTS); assay type: cell-based, human
Experimental: FIG. 14. Inhibition of cell viability by parental Puro. The cell lines were treated with the indicated doses of Puro (0, 1.1, 2.1, 4.2, or 8.4 μM) for 3 d followed by MTS assay. Data represent mean values of triplicate mesurements±s.d.
Cell number was determined by cell counting using improved Neubauer hemacytometer. Cell viability was calculated as the number of viable cells divided by the total number of cells using Trypan Blue Stain (Invitrogen) to distinguish non-viable cells. Data were obtained from duplicated samples with quadruplicate measurements. MTS based cell viability assay was performed using CellTiter 96 Aqueous Cell Proliferation Assay (Promega) according to the manufacturer's instruction. Either 1 μl of DMSO alone or variable concentrations of BKAc-Puro or Puro in DMSO were added to the cell lines seeded at 5×10^4 cells per well in 96-well tissue culture plates in 100 μl of the growth medium, followed by 3-5 d incubation at 37° C. with 5% CO2 atmosphere. […] After additional 2-3 h incubation, the absorbance of the formazan at 490 nm was measured by the microplate reader. […] Determination of non-viable cells using PI staining was performed by adding 1 μg/ml of PI solution (Sigma) to the cell culture, prior to the examination under fluorescence microscopy (Axiovert 3, Carl Zeiss) through a×32 objective equipped with a digital imaging processor (Infinity 3, Lumenera).

[4] = test system: HCT116, HT29, CCD841-CoN and Caco-2 cells; test: Immunological detection of Puro-labeled proteins in cells; assay type: cell-based, human; details: immunoblot; Boc-KAc-Puro 16.9 μM 20 h; Puro 2.1 μM 16 h
Experimental: FIG. 27. Levels of Puro-incorporated proteins in the cells were monitored by immunoblotting. Indicated cell lines were treated either with vehicle control DMSO or Boc-KAc-Puro (16.9 μM) in the presence or absence of TSA (0.5 μM) for 20 h, followed by preparation of cell lysates. The lower panel (anti-α-Tubulin) serves as a loading control.
FIG. 28. Levels of Puro-incorporated proteins in the cells were monitored by immunoblotting. Indicated cell lines were treated either with vehicle control DMSO or Puro (2.1 μM) in the presence or absence of TSA (0.5 μM) for 16 h, followed by preparation of cell lysates. […] The lower panel (anti-α-Tubulin) serves as a loading control.
Cultured cells or tissue samples were sonicated in RIPA lysis buffer (1% NP-40, 0.1% SDS, 50 mM Tris-HCl pH 7.4, 150 mM NaCl, 0.5% sodium deoxycholate, 1 mM EDTA) supplemented with PMSF and protease inhibitor cocktail (Roche) on ice followed by clarification. Protein lysates were separated on sodium dodecyl sulfate-polyacrylamide gels and transferred onto nitrocellulose membranes (Whatman). The primary antibodies used were anti-puromycin (3RH11, KeraFAST) and anti-α-tubulin (Sigma-Aldrich). Proteins of interest were detected with anti-mouse secondary antibody by chemiluminescence (ECL Kit, GE Healthcare Life Sciences).

cathepsin L (CTSL) = test: Live cell lysyl endopeptidase assay with Boc-Lys-AMC; assay type: cell-based; details: Z-FY-CHO 100 μM, live cells, all cases tested
Experimental: FIG. 2. Comparative live cell lysyl endopeptidase activity of the same cell lines as in FIG. 1 using substrate Boc-Lys-AMC either with vehicle control DMSO or Z-FY-CHO (100 μM). Data represent mean values of triplicate measurements±s.d. RFU, relative fluorescent units.
as §3, with “Then the deacetylation reaction was terminated by addition of HDAC developer solution containing cell lysis buffer and trypsin reagents.” left out, “Live cell enzymatic assay using Boc-Lys(Ac)-AMC was performed by applying the substrate 25 μM Boc-Lys(Ac)-AMC (either with DMSO, 1 μM TSA or 100 μM Z-FY-CHO) to the overnight culture seeded from 6×10^4 cells in 100 μl medium in 96-well tissue culture plates, followed by 20 h incubation at 37° C. with 5% CO2 atmosphere, then the fluorescent signal of AMC was measured. Experiments were repeated at least three times.” left out

BXPC-3 cells = test: MTS cell viability assay with or without TSA; assay type: cell-based, human; details: 20 μM, 72 hr, with TSA (50 μM as printed)
Experimental: FIG. 25. Selective cytotoxicity by BKAc-5FCR. Human pancreatic BXPC3 cells were treated with DMSO (vehicle), BKAc-5FCR (20 μM), or 5FCR (20 μM) for 72 hr with or without TSA (50 μM) followed by MTS cell viability assay. Representative phase contrast images of cells treated with DMSO (vehicle) or BKAc-5FCR (20 μM) for 72 hr with or without TSA (50 μM) are shown.

| Structure (SMILES) | IC50 [1] [µM] | difference in IC50 values shSki versus shGFP (BxPC3 shSki cells) | IC50 (BxPC3 shSki cells) [µM] | activation of substrate Boc-Lys(Ac)-AMC (AMC release) ([2]; TSA 1 μM) | also measured |
| --- | --- | --- | --- | --- | --- |
| Nc1nc(=O)n([C@@H]2O[C@H](CO)[C@@H](O)[C@H]2O)cc1F [5FCR, 5-fluorocytidine, reference compound] | 1.3 | no significant changes | 1.2 |  |  |
| CC(=O)NCCCC[C@H](NC(=O)OC(C)(C)C)C(=O)Nc1ccc2c(C)cc(=O)oc2c1 [Boc-Lys(Ac)-AMC] |  |  |  |  | activation of substrate in live cells relative to total HDAC activity ([2]; BxPC3, 25 μM, 2.5 hr, without cell lysis and trypsin): approximately 50% |
| COc1ccc(C[C@H](N)C(=O)N[C@H]2[C@@H](O)[C@H](n3cnc4c(N(C)C)ncnc43)O[C@@H]2CO)cc1 [Puro, puromycin, reference compound] |  |  |  |  | cell killing [3]: kill all of these cells examined; intensity of Puro incorporation, malignant vs normal and non-malignant cells [4]: no difference |
| O=C[C@H](Cc1ccc(O)cc1)NC(=O)[C@H](Cc1ccccc1)NC(=O)OCc1ccccc1 [Z-FY-CHO] (Cbz-Phe-Tyr-aldehyde) |  |  |  | completely abrogated the activation of the substrate | release of AMC from Boc-Lys-AMC (cathepsin L (CTSL)): significantly blocked |
| CC(/C=C/C(=O)NO)=C\[C@@H](C)C(=O)c1ccc(N(C)C)cc1 [TSA, Trichostatin A] |  |  |  | completely inhibited activation | AMC release, time course ([2]; BxPC3, 20 hr time course, TSA 1 μM): AMC release was inhibited |
| CC(=O)NCCCCC(NC(=O)OC(C)(C)C)C(=O)Nc1nc(=O)n([C@@H]2O[C@H](CO)[C@@H](O)[C@H]2O)cc1F (stereo partly drawn) [BKAc-5FCR, t-butyl (6-acetamido-1-((1-((2R,3R,4S,5R)-3,4-dihydroxy-5-(hydroxymethyl)tetrahydrofuran-2-yl)-5-fluoro-2-oxo-1,2-dihydropyrimidin-4-yl)amino)-1-oxohexan-2-yl)carbamate] | 2.6 | two-fold | 5.2 |  | cytotoxic effect in the presence of HDAC inhibitor TSA (BXPC-3 cells): substantially compromised |
